# Measurements from patent US20080057086A1, “COLON-TARGETED ORAL FORMULATIONS OF CYTIDINE ANALOGS” (PHARMION CORPORATION, priority 2006, published 2008).
# Like-named read-outs stand apart in the source and are kept apart here.
# Legend:
# [1] = test system: total hemoglobin; conditions: β^0-thalassemic patient, cited from earlier work
# [2] = Clinical study of single oral doses of 5-azacytidine (oral formulation of Example 3): PK, bioavailability, safety; assay type: in vivo, human; conditions: for bioavailability: oral, SC reference dose = 135 mg, AUC = 777 ng · h/mL, read-out: F, percent bioavailability compared with historical SC azacitidine data
# Protocol: The study was a multicenter, open-label, single treatment study. Patients were treated with escalating doses, in 20 mg increments, up to 200 mg. The study assessed the safety and tolerability of escalating doses, provided pilot information on the oral bioavailability of the study drug, and provided information on the single dose pharmacokinetics of the study drug after oral administration.
# Multicenter, open-label, single-treatment, escalating-dose PK study. […] Single subject cohorts were used for each dose escalation. Subsequent subjects were to be treated at escalating doses, up to 200 mg, in 20 mg increments. Dose escalation was to continue until 1 of the following conditions was reached: • a.
# If no safety concerns were identified and no Grade 3 or 4 AEs occurred in these subjects, dose escalation was to continue. […] Serial blood samples for plasma PK analyses were drawn before, and at the following time points after, dosing: 0.5, 1, 1.5, 2, 2.5, 3, 3.5, 4, 4.5, 5, 5.5, 6, 6.5, 7, 8 hours, and 12 hours (if possible). […] PK parameters calculated from plasma concentrations included (but were not limited to) Cmax, Tmax, t1/2, and AUC(0−∞).
# [3] = Excipient compatibility studies; assay type: physicochemical
# [4] = test system: fetal hemoglobin production; conditions: baboons; IV, SC or PO route; PO needed co-administration of THU; 0.25 to 8 mg/kg/d with 20 mg/kg/d THU; cited from earlier work
# [5] = 1 subject, 60 mg single oral dose
# [6] = 1 subject, 80 mg single oral dose
# [7] = all 4 subjects, 60 or 80 mg single oral dose
# [8] = human, plasma, po, 60 mg, Subject 101, 60 mg single oral dose (Example 3 tablets)
# [9] = human, plasma, po, 60 mg, Subject 101, 60 mg single oral dose (Example 3 tablets), read-out: Plasma concentration
# [10] = human, plasma, po, 80 mg, Mean (n = 3), 80 mg single oral dose (Example 3 tablets)
# [11] = human, plasma, po, 80 mg, Mean of 80 mg dose group (n=3), single oral dose (Example 3 tablets), read-out: Mean plasma concentration
# [12] = human, plasma, po, 80 mg, Subject 102, 80 mg single oral dose (Example 3 tablets)
# [13] = human, plasma, po, 80 mg, Subject 102, 80 mg single oral dose (Example 3 tablets), read-out: Plasma concentration
# [14] = human, plasma, po, 80 mg, Subject 201, 80 mg single oral dose (Example 3 tablets)
# [15] = human, plasma, po, 80 mg, Subject 201, 80 mg single oral dose (Example 3 tablets), read-out: Plasma concentration
# [16] = human, plasma, po, 80 mg, Subject 202, 80 mg single oral dose (Example 3 tablets)
# [17] = human, plasma, po, 80 mg, Subject 202, 80 mg single oral dose (Example 3 tablets), read-out: Plasma concentration
smiles,measurement,setting,value
"Nc1ncn([C@@H]2O[C@H](CO)[C@@H](O)[C@H]2O)c(=O)n1 [5-azacytidine, 4-amino-1-β-D-ribofuranosyl-1,3,5-triazin-2(1H)-one]",Hemoglobin levels,[1]; 2 mg/d tid PO with co-administration of THU,did not result in increased hemoglobin levels
same,Hemoglobin levels,[1]; 2 mg/kg/d IV,measurable increase
same,Plasma samples with quantifiable 5-azacytidine,[2]; [5],2 samples
same,Tolerability,[2]; [5],well tolerated
same,Consecutive plasma samples with detectable 5-azacytidine,[2]; [6],4 consecutive samples
same,Tolerability,[2]; [6],well tolerated
same,Mean plasma concentration,"[2]; Mean of 80 mg dose group (n=3), single oral dose (Example 3 tablets), 4.0 h",BLQ
same,Mean plasma concentration,"[2]; Mean of 80 mg dose group (n=3), single oral dose (Example 3 tablets), 4.5 h",BLQ
same,Mean plasma concentration,"[2]; Mean of 80 mg dose group (n=3), single oral dose (Example 3 tablets), 5.0 h",BLQ
same,Plasma concentration,"[2]; Subject 101, 60 mg single oral dose (Example 3 tablets), 0.5 h",BLQ
same,Plasma concentration,"[2]; Subject 101, 60 mg single oral dose (Example 3 tablets), 4.5 h",BLQ
same,Plasma concentration,"[2]; Subject 101, 60 mg single oral dose (Example 3 tablets), 5.0 h",BLQ
same,Plasma concentration,"[2]; Subject 102, 80 mg single oral dose (Example 3 tablets), 0.5 h",BLQ
same,Plasma concentration,"[2]; Subject 102, 80 mg single oral dose (Example 3 tablets), 3.5 h",BLQ
same,Plasma concentration,"[2]; Subject 102, 80 mg single oral dose (Example 3 tablets), 4.0 h",BLQ
same,Plasma concentration,"[2]; Subject 102, 80 mg single oral dose (Example 3 tablets), 4.5 h",BLQ
same,Plasma concentration,"[2]; Subject 102, 80 mg single oral dose (Example 3 tablets), 5.0 h",BLQ
same,Plasma concentration,"[2]; Subject 201, 80 mg single oral dose (Example 3 tablets), 0.5 h",BLQ
same,Plasma concentration,"[2]; Subject 201, 80 mg single oral dose (Example 3 tablets), 5.0 h",BLQ
same,Plasma concentration,"[2]; Subject 202, 80 mg single oral dose (Example 3 tablets), 4.0 h",BLQ
same,Plasma concentration,"[2]; Subject 202, 80 mg single oral dose (Example 3 tablets), 4.5 h",BLQ
same,Plasma concentration,"[2]; Subject 202, 80 mg single oral dose (Example 3 tablets), 5.0 h",BLQ
same,Grade of AEs possibly related to study drug,[2]; [7],Grade 2
same,Study-drug-related SAEs,[2]; [7],No study-drug-related SAEs
same,bioavailability,"[2]; human, plasma, 60 mg, Subject 101, 60 mg single oral dose",6.7%
same,bioavailability,"[2]; human, plasma, 80 mg, Mean (n = 3), 80 mg single oral dose",18%
same,bioavailability,"[2]; human, plasma, 80 mg, Subject 102, 80 mg single oral dose",6.3%
same,bioavailability,"[2]; human, plasma, 80 mg, Subject 201, 80 mg single oral dose",24%
same,bioavailability,"[2]; human, plasma, 80 mg, Subject 202, 80 mg single oral dose",22%
same,AUC(0-inf),[2]; [8],22.6 ng·h/mL
same,Cmax,[2]; [8],15.8 ng/mL
same,Tmax,[2]; [8],3 h
same,concentration at 0 h,[2]; [9],0 ng/mL
same,concentration at 1 h,[2]; [9],3.72 ng/mL
same,concentration at 1.5 h,[2]; [9],4.56 ng/mL
same,concentration at 2 h,[2]; [9],3.75 ng/mL
same,concentration at 3 h,[2]; [9],15.8 ng/mL
same,concentration at 3.5 h,"[2]; human, plasma, po, 60 mg, Subject 101, 60 mg single oral dose (Example 3 tablets), 3.5 h, read-out: Plasma concentration",4.27 ng/mL
same,concentration at 4 h,"[2]; human, plasma, po, 60 mg, Subject 101, 60 mg single oral dose (Example 3 tablets), 4.0 h",1.55 ng/mL
same,AUC(0-inf),[2]; [10],81.5 ng·h/mL
same,Cmax,[2]; [10],53.2 ng/mL
same,Tmax,[2]; [10],1.5 h
same,half-life,[2]; [10],0.361 h
same,concentration at 0 h,[2]; [11],0 ng/mL
same,concentration at 0.5 h,"[2]; human, plasma, po, 80 mg, Mean of 80 mg dose group (n=3), single oral dose (Example 3 tablets), 0.5 h, read-out: Mean plasma concentration",1.49 ng/mL
same,concentration at 1 h,[2]; [11],46.6 ng/mL
same,concentration at 1.5 h,[2]; [11],53.2 ng/mL
same,concentration at 2 h,[2]; [11],36.9 ng/mL
same,concentration at 2.5 h,[2]; [11],17.5 ng/mL
same,concentration at 3 h,[2]; [11],6.3 ng/mL
same,concentration at 3.5 h,"[2]; human, plasma, po, 80 mg, Mean of 80 mg dose group (n=3), single oral dose (Example 3 tablets), 3.5 h, read-out: Mean plasma concentration",2.57 ng/mL
same,AUC(0-inf),[2]; [12],28.6 ng·h/mL
same,Cmax,[2]; [12],34.3 ng/mL
same,Tmax,[2]; [12],1.5 h
same,half-life,[2]; [12],0.336 h
same,concentration at 0 h,[2]; [13],0 ng/mL
same,concentration at 1 h,[2]; [13],9.25 ng/mL
same,concentration at 1.5 h,[2]; [13],34.3 ng/mL
same,concentration at 2 h,[2]; [13],11 ng/mL
same,concentration at 2.5 h,[2]; [13],3.61 ng/mL
same,concentration at 3 h,[2]; [13],1.4 ng/mL
same,AUC(0-inf),[2]; [14],111 ng·h/mL
same,Cmax,[2]; [14],75.1 ng/mL
same,Tmax,[2]; [14],2 h
same,half-life,[2]; [14],0.416 h
same,concentration at 0 h,[2]; [15],0 ng/mL
same,concentration at 1 h,[2]; [15],31.5 ng/mL
same,concentration at 1.5 h,[2]; [15],58.5 ng/mL
same,concentration at 2 h,[2]; [15],75.1 ng/mL
same,concentration at 2.5 h,[2]; [15],36.4 ng/mL
same,concentration at 3 h,[2]; [15],14.1 ng/mL
same,concentration at 3.5 h,"[2]; human, plasma, po, 80 mg, Subject 201, 80 mg single oral dose (Example 3 tablets), 3.5 h, read-out: Plasma concentration",6.1 ng/mL
same,concentration at 4 h,"[2]; human, plasma, po, 80 mg, Subject 201, 80 mg single oral dose (Example 3 tablets), 4.0 h",2.43 ng/mL
same,concentration at 4.5 h,"[2]; human, plasma, po, 80 mg, Subject 201, 80 mg single oral dose (Example 3 tablets), 4.5 h",1.19 ng/mL
same,AUC(0-inf),[2]; [16],103 ng·h/mL
same,Cmax,[2]; [16],99.1 ng/mL
same,Tmax,[2]; [16],1 h
same,half-life,[2]; [16],0.366 h
same,concentration at 0 h,[2]; [17],0 ng/mL
same,concentration at 0.5 h,"[2]; human, plasma, po, 80 mg, Subject 202, 80 mg single oral dose (Example 3 tablets), 0.5 h, read-out: Plasma concentration",4.46 ng/mL
same,concentration at 1 h,[2]; [17],99.1 ng/mL
same,concentration at 1.5 h,[2]; [17],66.7 ng/mL
same,concentration at 2 h,[2]; [17],24.5 ng/mL
same,concentration at 2.5 h,[2]; [17],12.5 ng/mL
same,concentration at 3 h,[2]; [17],3.41 ng/mL
same,concentration at 3.5 h,"[2]; human, plasma, po, 80 mg, Subject 202, 80 mg single oral dose (Example 3 tablets), 3.5 h, read-out: Plasma concentration",1.61 ng/mL
same,Tmax,"[2]; human, plasma, po, 80 mg, individual subjects who received an 80 mg oral dose (three values), post-dose",1.5 h
same,Cmax increase versus the 60 mg dose,[2]; mean 80 mg oral dose,3.5 fold
same,Time at which concentrations were below the level of quantitation,[2]; mean 80 mg oral dose,4.0 h
same,Apparent oral bioavailability,[2]; oral formulation of Example 3,acceptable for therapeutic treatment
same,Excipient compatibility,[3]; each excipient of the Example 3 formulation (Table 2),compatible with each excipient
same,Excipient compatibility,[3]; each excipient of the Example 4 formulation (Table 3),compatible with each excipient
same,Excipient compatibility,[3]; each excipient of the Example 6 formulation (Table 7),compatible with each excipient
same,Excipient compatibility,[3]; each excipient of the Example 7 formulation (Table 8),compatible with each excipient
same,Excipient compatibility,[3]; each excipient of the Example 8 formulation (Table 9),compatible with each excipient
same,Excipient compatibility,[3]; each excipient of the Example 9 formulation (Table 10),compatible with each excipient
same,Fetal hemoglobin production,[4],induce fetal hemoglobin production
